Values after ≈ are worked out from the molar mass of the structure shown. Like-named read-outs stand apart in the source and are kept apart here.
How the values were obtained:
E. coli 51A266 [1] = assay: In vitro MIC, E. coli 51A266; format: cell-based
Text: (§1) The in vitro activity of the herein described compounds renders them useful for topical application in the form of ointments, creams and the like, or for sterilization purposes, e.g., sick-room utensils.
(§2) Table I compares the in vitro profile of 6-[D-2-phenyl-2-(amidinopropionamido)acetamido]penicillanic acid (PAP) with ampicillin (AMP) and carbenicillin (CAR).

E. coli 51A002 = assay: In vitro MIC, E. coli 51A002; format: cell-based; settings: Escherichia coli, Table I, nutrient broth
Text: as §1, §2

Ps. aeruginosa 52A490 = assay: In vitro MIC, Ps. aeruginosa 52A490; format: cell-based
Text: as §1, §2

Ps. aeruginosa 52A104 = assay: In vitro MIC, Ps. aeruginosa 52A104; format: cell-based
Text: as §1, §2

Ps. aeruginosa 52A173 = assay: In vitro MIC, Ps. aeruginosa 52A173; format: cell-based; settings: Pseudomonas aeruginosa, Table I, nutrient broth
Text: as §1, §2

Kleb. pneumoniae 53A009 = assay: In vitro MIC, Kleb. pneumoniae 53A009; format: cell-based
Text: as §1, §2

Kleb. pneumoniae 53A015 = assay: In vitro MIC, Kleb. pneumoniae 53A015; format: cell-based; settings: Klebsiella pneumoniae, Table I, nutrient broth
Text: as §1, §2

A. aerogenes 55A002 = assay: In vitro MIC, A. aerogenes 55A002; format: cell-based; settings: Klebsiella aerogenes, Table I, nutrient broth
Text: as §1, §2

A. aerogenes 55A004 = assay: In vitro MIC, A. aerogenes 55A004; format: cell-based; settings: Klebsiella aerogenes, Table I, nutrient broth
Text: as §1, §2

Ser. marcescens 63A001 = assay: In vitro MIC, Ser. marcescens 63A001; format: cell-based
Text: as §1, §2

P. vulgaris 57A059 = assay: In vitro MIC, P. vulgaris 57A059; format: cell-based; settings: Proteus vulgaris
Text: as §1, §2

S. aureus = assay: In vitro MIC, S. aureus; format: cell-based; settings: Staphylococcus aureus, Table I, nutrient broth
Text: as §1, §2

E. coli 51A266 [2] = assay: In vivo protection of mice against experimental E. coli 51A266 infection; settings: doses 0.5, 4 and 24 hours; for % Protection (% survivors): Table II; for % Survivors: Table IV
Description: Table II presents the in vivo comparison data for the three compounds contained in Table I aganst several experimental infections in mice.
The values (% survivors) are obtained under standard conditions known to those skilled in the art. For the E. coli organism, the test compound is administered to the infected mice by a multiple dosing regimen in which the first dose is given 0.5 hour after inoculation and is repeated 4 and 24 hours later.
Table IV presents in vivo comparison data for the four compounds in Table III against E. coli infections in mice.
The values, reported as % survivors, are obtained under standard conditions familiar to those skilled in the art. The test compound is administered to the infected mice by a multiple dosing regimen in which the first dose is given 0.5 hour after inoculation and is repeated 4 and 24 hours later.

gram-negative bacteria = settings: in words, U.S. Pat. No. 3,142,673, cited from earlier work
P. mirabilis 57C015 = assay: In vitro MIC, P. mirabilis 57C015; format: cell-based; settings: Table III
Text: as §1, §2

S. aureus 01A005 = assay: In vitro MIC, S. aureus 01A005; format: cell-based; settings: Table III
Text: as §1, §2

A. aerogenes = assay: In vitro MIC, A. aerogenes (strain not given); format: cell-based; settings: Table III
Text: as §1, §2

[3] = Pseudomonas aeruginosa, Table I, nutrient broth, read-out: MIC
[4] = Klebsiella pneumoniae, Table I, nutrient broth, read-out: MIC
[5] = Serratia marcescens, Table I, nutrient broth, read-out: MIC
[6] = Table I, P. vulgaris 57A059, nutrient broth, read-out: MIC
[7] = Escherichia coli, Table I, E. coli 51A266, nutrient broth, read-out: MIC

Structure (SMILES) | MIC (E. coli 51A002) | MIC (Ps. aeruginosa 52A490; [3]) | MIC (Ps. aeruginosa 52A104; [3]) | MIC (Ps. aeruginosa 52A173) | MIC (Kleb. pneumoniae 53A009; [4]) | MIC (Kleb. pneumoniae 53A015) | MIC (E. coli 51A266 [1]; Table III, E. coli 51A266) | MIC (Ps. aeruginosa 52A490; Table III) | MIC (Ps. aeruginosa 52A104; Table III) | MIC (Kleb. pneumoniae 53A009; Table III) | MIC (Ser. marcescens 63A001; Table III) | MIC (P. mirabilis 57C015) | MIC (S. aureus 01A005) | MIC (A. aerogenes) | % Survivors (E. coli 51A266 [2]; PO, 25 mg./kg.) | % Survivors (E. coli 51A266 [2]; PO, 50 mg./kg.) | % Survivors (E. coli 51A266 [2]; PO, 200 mg./kg.) | % Survivors (E. coli 51A266 [2]; SC, 25 mg./kg.) | % Survivors (E. coli 51A266 [2]; SC, 50 mg./kg.) | % Survivors (E. coli 51A266 [2]; SC, 200 mg./kg.) | other results
CC1(C)S[C@@H]2[C@H](NC(=O)[C@H](N)c3ccccc3)C(=O)N2[C@H]1C(=O)O [AMP, ampicillin, reference compound] | 200 µg/mL (≈ 572 µM) | 0.78 µg/mL (≈ 2.23 µM) | 200 µg/mL (≈ 572 µM) | 38 µg/mL (≈ 109 µM) | 100 µg/mL (≈ 286 µM) | 250 µg/mL (≈ 715 µM) |  |  |  |  |  |  |  |  |  |  |  |  |  |  | MIC (E. coli 51A266 [1]; Escherichia coli, 51A266): 3.12 µg/mL (≈ 8.93 µM); MIC (A. aerogenes 55A002): 100 µg/mL (≈ 286 µM); MIC (A. aerogenes 55A004): 5 µg/mL (≈ 14.3 µM); MIC (Ser. marcescens 63A001; [5]): 200 µg/mL (≈ 572 µM); MIC (P. vulgaris 57A059; [6]): 6 µg/mL (≈ 17.2 µM); MIC (S. aureus): 0.09 µg/mL (≈ 0.258 µM); % Protection (% survivors) (E. coli 51A266 [2]; PO, 50 mg./kg.): 80%; % Protection (% survivors) (E. coli 51A266 [2]; PO, 200 mg./kg.): 90%; % Protection (% survivors) (E. coli 51A266 [2]; SC, 50 mg./kg.): 80%; % Protection (% survivors) (E. coli 51A266 [2]; SC, 200 mg./kg.): 90%
CC1(C)S[C@@H]2[C@H](NC(=O)C(C(=O)O)c3ccccc3)C(=O)N2[C@H]1C(=O)O (stereo partly drawn) [CAR, carbenicillin] | 200 µg/mL (≈ 529 µM) | 0.6 µg/mL (≈ 1.59 µM) | 50 µg/mL (≈ 132 µM) | 75 µg/mL (≈ 198 µM) | 200 µg/mL (≈ 529 µM) | > 200 µg/mL |  |  |  |  |  |  |  |  |  |  |  |  |  |  | MIC (E. coli 51A266 [1]; [7]): 3.12 µg/mL (≈ 8.25 µM); MIC (A. aerogenes 55A002): 25 µg/mL (≈ 66.1 µM); MIC (A. aerogenes 55A004): 50 µg/mL (≈ 132 µM); MIC (Ser. marcescens 63A001; [5]): 25 µg/mL (≈ 66.1 µM); MIC (P. vulgaris 57A059; 57A059): 12.5 µg/mL (≈ 33 µM); MIC (S. aureus): 1.56 µg/mL (≈ 4.12 µM); utility via oral administration (gram-negative bacteria; oral): limited utility via oral administration; efficacy against gram-negative bacteria (gram-negative bacteria; parenteral route): greater efficacy against gram-negative bacteria via the parenteral route of administration
CC1(C)S[C@@H]2[C@H](NC(=O)[C@H](NC(=O)CCC(=N)N)c3ccccc3)C(=O)N2[C@H]1C(=O)O [PAP, 6-[D-2-phenyl-2-(amidinopropionamido)acetamido]penicillanic acid] | 200 µg/mL (≈ 447 µM) | 1.56 µg/mL (≈ 3.49 µM) | 12.5 µg/mL (≈ 27.9 µM) | 0.78 µg/mL (≈ 1.74 µM) | 25 µg/mL (≈ 55.9 µM) | > 200 µg/mL |  |  |  |  |  |  |  |  |  |  |  |  |  |  | MIC (E. coli 51A266 [1]; [7]): 1.56 µg/mL (≈ 3.49 µM); MIC (A. aerogenes 55A002): 100 µg/mL (≈ 223 µM); MIC (Ser. marcescens 63A001; [5]): 3.12 µg/mL (≈ 6.97 µM); MIC (P. vulgaris 57A059; [6]): 1.56 µg/mL (≈ 3.49 µM)
CC1(C)S[C@@H]2[C@H](NC(=O)C(NC(=O)CNC(=N)c3ccc(Br)cc3)c3ccccc3)C(=O)N2[C@H]1C(=O)O (stereo partly drawn) [X = Br] |  |  |  |  |  |  | 0.39 µg/mL (≈ 0.663 µM) | 6.25 µg/mL (≈ 10.6 µM) | 25 µg/mL (≈ 42.5 µM) | 12.5 µg/mL (≈ 21.2 µM) | 6.25 µg/mL (≈ 10.6 µM) | 3.12 µg/mL (≈ 5.3 µM) | 0.39 µg/mL (≈ 0.663 µM) | 3.12 µg/mL (≈ 5.3 µM) | 10% | 0% | 0% | 50% | 60% | 90% | 
CC1(C)S[C@@H]2[C@H](NC(=O)C(NC(=O)CNC(=N)c3ccc(Cl)cc3)c3ccccc3)C(=O)N2[C@H]1C(=O)O (stereo partly drawn) [X = Cl] |  |  |  |  |  |  | 0.78 µg/mL (≈ 1.43 µM) | 12.5 µg/mL (≈ 23 µM) | 25 µg/mL (≈ 46 µM) | 12.5 µg/mL (≈ 23 µM) | 6.25 µg/mL (≈ 11.5 µM) | 3.12 µg/mL (≈ 5.73 µM) | 0.39 µg/mL (≈ 0.717 µM) | 3.12 µg/mL (≈ 5.73 µM) | 0% | 0% | 0% | 50% | 60% | 70% | 
CC1(C)S[C@@H]2[C@H](NC(=O)C(NC(=O)CNC(=N)c3ccc(F)cc3)c3ccccc3)C(=O)N2[C@H]1C(=O)O (stereo partly drawn) [X = F] |  |  |  |  |  |  | 1.56 µg/mL (≈ 2.96 µM) | 3.12 µg/mL (≈ 5.91 µM) | 12.5 µg/mL (≈ 23.7 µM) | 25 µg/mL (≈ 47.4 µM) | 6.25 µg/mL (≈ 11.8 µM) | 3.12 µg/mL (≈ 5.91 µM) | 0.39 µg/mL (≈ 0.739 µM) | 25 µg/mL (≈ 47.4 µM) | 10% | 0% | 10% | 50% | 70% | 90% | 
CC1(C)S[C@@H]2[C@H](NC(=O)C(NC(=O)CNC(=N)c3ccccc3)c3ccccc3)C(=O)N2[C@H]1C(=O)O (stereo partly drawn) [X = H] |  |  |  |  |  |  | 12.5 µg/mL (≈ 24.5 µM) | 12.5 µg/mL (≈ 24.5 µM) | 25 µg/mL (≈ 49.1 µM) | 100 µg/mL (≈ 196 µM) | 12.5 µg/mL (≈ 24.5 µM) | 12.5 µg/mL (≈ 24.5 µM) | 0.78 µg/mL (≈ 1.53 µM) | 25 µg/mL (≈ 49.1 µM) | 0% | 0% | 10% | 10% | 70% | 90% | 
